Test results: article PMC12284876 (RSC Advances, 2025)

Target: α-glucosidase from Saccharomyces cerevisiae (Saccharomyces cerevisiae, UniProt P53341)
Experiment: α-Glucosidase inhibitory assay
Type: biochemical
Conditions: mean ± standard error, n = 3; for Inhibition (I, %) 10 μM: compound at 10 μM; for Inhibition (I, %) 10 μM / Inhibition (I, %) 25 μM: series 250–10 μM; for Inhibition (I, %) 25 μM: compound at 25 μM; for Inhibition (I, %) 50 μM: compound at 50 μM; for Inhibition (I, %) 100 μM: compound at 100 μM; for Inhibition (I, %) 250 μM: compound at 250 μM

Chain of α-glucosidase from Saccharomyces cerevisiae (P53341 whole entry): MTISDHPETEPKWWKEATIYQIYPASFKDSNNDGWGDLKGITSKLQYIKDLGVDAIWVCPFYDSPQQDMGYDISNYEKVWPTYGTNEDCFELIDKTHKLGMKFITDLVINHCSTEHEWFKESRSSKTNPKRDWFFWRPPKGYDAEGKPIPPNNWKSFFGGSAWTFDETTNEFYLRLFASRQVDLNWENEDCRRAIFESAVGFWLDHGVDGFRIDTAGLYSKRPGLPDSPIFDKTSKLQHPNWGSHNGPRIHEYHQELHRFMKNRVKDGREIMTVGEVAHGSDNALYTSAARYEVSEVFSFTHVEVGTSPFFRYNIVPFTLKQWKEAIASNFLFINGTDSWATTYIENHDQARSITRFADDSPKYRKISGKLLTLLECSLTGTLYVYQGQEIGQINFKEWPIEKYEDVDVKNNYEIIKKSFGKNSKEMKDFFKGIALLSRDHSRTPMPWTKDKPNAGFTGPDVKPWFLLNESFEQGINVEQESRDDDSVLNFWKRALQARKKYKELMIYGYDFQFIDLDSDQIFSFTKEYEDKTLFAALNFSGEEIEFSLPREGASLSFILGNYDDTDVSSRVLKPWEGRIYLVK

Structure (SMILES): C[C@H]1O[C@H](O[C@H]2[C@H](O)[C@@H](O)[C@@H](O[C@H]3[C@H](O)[C@@H](O)C(O)O[C@@H]3CO)O[C@@H]2CO)[C@H](O)[C@@H](O)[C@@H]1N[C@H]1C=C(CO)[C@@H](O)[C@H](O)[C@H]1O (stereo partly shown) [Acarbose]
- Inhibition (I, %) 10 μM: 5.45 ± 0.68%
- Inhibition (I, %) 25 μM: 9.3 ± 1.2%
- Inhibition (I, %) 50 μM: 21.0 ± 1.6%
- Inhibition (I, %) 100 μM: 26.8 ± 1.0%
- Inhibition (I, %) 250 μM: 63.8 ± 1.0%

Structure (SMILES): O=c1c(O)c(-c2ccc(O)cc2)oc2cc(O)cc(O)c12 [Compound 8, kaempferol]
- Inhibition (I, %) 10 μM: 8.6 ± 1.4%
- Inhibition (I, %) 25 μM: 44.1 ± 2.9%
- Inhibition (I, %) 50 μM: 84.9 ± 1.1%
- Inhibition (I, %) 100 μM: 98.5 ± 2.2%
- Inhibition (I, %) 250 μM: ^b (Inhibition > 99%)
